# From ChEMBL document CHEMBL5579871, “Novel Papain-Like Protease Inhibitors for Treating Viral Infections, in particular, Coronavirus Infections” (ACS Med Chem Lett, 2024)
# Molecular target: Replicase polyprotein 1ab (Severe acute respiratory syndrome coronavirus 2, UniProt P0DTD1)
# Experiment: Inhibition of SARS-CoV-2 papain-like protease using Z-RLRGG-AMC as fluorogenic substrate preincubated for 30 mins followed by substrate addition and measured after 60 mins by plate reader assay
row,SMILES,IC50 [nM]
1,Cc1ccc(N2CCN(C)CC2)cc1C(=O)N[C@H](C)c1cc(-c2cnn(C)c2)cc(-c2cc(Cl)cnc2N)c1,3
2,Cc1cc(CNCc2cscn2)ccc1C(=O)N[C@H](C)c1cc(-c2cnn(C)c2)cc(-c2ccns2)c1,3
3,Cc1ccc(N2CCNCC2)cc1C(=O)N[C@H](C)c1cc(-c2cnn(C)c2)cc(-c2cc(Cl)cnc2N)c1,4
4,Cc1cc(C(=O)NCc2cscn2)ccc1C(=O)N[C@H](C)c1cc(-c2cnn(C)c2)cc(-c2ccns2)c1,3
5,Cc1ccc(N2CCN(C)CC2)cc1C(=O)N[C@H](C)c1cc(-c2cnn(C)c2)cc(-c2cccs2)c1,4
6,Cc1ccc(NC(=O)[C@H]2CCCCN2)cc1C(=O)N[C@H](C)c1cc(-c2cnn(C)c2)cc(-c2cccs2)c1,4
